According to a melting point compilation (Tetko et al.; mined from patent text by program, amines drawn as free bases though some values may be those of a salt):

Compound | melting point
O=C(O)c1ccc(-c2nn(-c3ccc(C(=O)O)cc3)c3ccc([N+](=O)[O-])cc23)cc1 | 348 to 350 °C
CSCCCNc1cn(-c2cccnc2)nc1Cl | 80 to 81 °C
CON(C)C(=O)c1cc2c(s1)CCCC2 | 36 to 37 °C
CC(=O)c1cc2c(cc1NC(=O)c1sccc1S(=O)(=O)Nc1onc(C)c1Cl)OCO2 | 191 to 193 °C
Cc1ccc(C23CCC(O)(CC2)CC3)cc1 | 144 °C
Nc1ccc(-c2cn(C3CCN(Cc4ccccc4)CC3)c3ncnc(N)c23)cc1F | 141 to 142 °C
OCCN1CCN(c2ccccn2)CC1 | 82.5 to 84 °C
Oc1c(C(=Nc2ccccc2)Nc2ccccc2)sc2ccccc12 | 152 to 153 °C
CCCCNC(=O)c1cc(-c2csc(-c3ccc([N+](=O)[O-])cc3)n2)n(CC2CCCCC2)c1C | 184 to 187 °C
O=C(O)c1nn(-c2ccc(Cl)cc2Cl)c(-c2ccc(Cl)cc2)c1Br | 222 to 224 °C
Cc1oc(-c2ccccc2)nc1COc1ccc2c(-c3ccccc3)c(COc3nn(-c4ccccc4)cc3C=O)oc2c1 | 176 to 177 °C
CC(=O)Nc1nc(-c2ccccc2)c(-c2ccnc(Nc3ccccc3)n2)s1 | > 260 °C
Cn1c(CCOc2ccc(CC3SC(=O)NC3=O)cc2)nc2cccnc21 (stereo unspecified) | 96 to 100 °C
Nc1cccc2c1cnn2-c1ccc(F)cc1 | 84 to 88 °C
Cc1ccc(C23CNCC2CC3=O)cc1 (stereo unspecified) | 130 to 133 °C
Cn1ccnc1Sc1ccc2[nH]nc(N)c2c1 | 174 °C
C(#Cc1ccc(C=CC2=CC(c3ccc(C#Cc4ccccc4)cc3)N(c3ccccc3)N2)cc1)c1ccccc1 (stereo unspecified) | 212 to 214 °C
O=[N+]([O-])c1cccc2nc[nH]c12 | 242 to 245 °C
COc1ccc(C2=NN(C3CCSCC3)C(=O)[C@H]3CC=CC[C@@H]23)cc1OC (relative stereo) | 140 to 141 °C
CC12CCC3c4ccc(C(=O)O)cc4CCC3C1CCC2C(=O)c1ccc(Oc2ccccc2)cc1 (stereo unspecified) | 224 to 225 °C
BrCc1cc(-c2ccccc2)cs1 | 87 to 88.5 °C
CN(C)c1nc2cc(NC(=O)c3c(C(=O)N4CCOCC4)cnn3C)ccn2n1 | 196 to 198 °C

Compound | melting point
CN1C(=O)CCC2(C)c3ccc(Sc4cncc5ccccc45)cc3CCC12 (stereo unspecified) | 161 to 163 °C
COc1ccc(Cc2nc3n(c2-c2ccccc2)CCS3)cc1 | 273 to 274 °C
CC1=NC(NC(=O)Nc2cc(C)ccn2)C(=O)N(CC(=O)N2CC3CCC(CC3)C2)c2c(C)cccc21 (stereo unspecified) | 152 to 154 °C
C#Cc1cc(NC(=O)c2cnn(-c3ccc(Cl)cc3)c2C)ccc1N1CCC(N2CCOCC2)CC1 | 203 to 205 °C
Cc1ccnc(N2CCN(CCc3c(C)n4c5c(cc([N+](=O)[O-])cc35)CCC4)CC2)c1 | 230 °C
Oc1cc(O)cc(-c2ccccc2)c1 | 157 to 158 °C
O=C1CC(c2cccc3c2OCO3)=Nc2ccc(N3CCCC3)cc21 | 330 to 332 °C
O=C(Cc1cccc2ccccc12)NCc1cccc2c1C(=O)N(C1CCC(=O)NC1=O)C2=O (stereo unspecified) | 187 to 189 °C
CC1CCc2c(Cl)c(N3CCOCC3)cc3c(=O)c(C(=O)O)cn1c23 (stereo unspecified) | 271 to 274 °C
O=C(O)CN(c1ccccc1)S(=O)(=O)c1ccccc1 | 166 to 167 °C
CCCCc1ccc(C(=O)CCCn2ccnc2)cc1 | 125 to 128 °C
Clc1ccc(-c2noc3ccc(CBr)cc23)cc1 | 142 °C
Cc1noc(NS(=O)(=O)c2ccccc2-c2ccc(-c3ncco3)cc2Cc2ncc(-c3ccccc3)o2)c1C | 120 to 128 °C
CS(=O)(=O)c1ccc(-c2cnn(Cc3ncc(Cl)s3)c(=O)c2-c2ccc(F)cc2)cc1 | 185 to 186 °C
CO[C@H]1CC[C@H](N(C)C(=S)c2ccc3nonc3c2)CC1 | 137 to 138 °C
CC(=O)Oc1cccc2c1C(=O)c1c(OC(C)=O)cc(-c3nc4ccccc4n3C)cc1C2=O | 279 to 280 °C
Cc1c(C)c2c(c(C)c1NC(=O)CC(C)(C)C)C(O)C(C)(C)O2 (stereo unspecified) | 204 to 206 °C
N#Cc1c(-c2ccccc2)c(-c2ccccc2)nn(CC(=O)NN)c1=O | 191 to 192 °C
N#Cc1cnn(-c2nc(Cl)c(C(F)(F)F)cc2Cl)c1Br | 121 to 122 °C
N#Cc1ccc(N2C(=O)C3CSCN3C2=O)c2ccccc12 (stereo unspecified) | 223 to 225 °C
O=C(Nc1cccc(OC(F)(F)F)c1)Nc1ccccc1CCO | 160 to 161 °C
CCP(=O)(O)CCCN | 233 to 239 °C

Compound | melting point
NC(=O)[C@@H]1[C@H](NC(=O)/C(=N\OCC(=O)OCc2ccc([N+](=O)[O-])cc2)c2csc(NC(=O)CCl)n2)C(=O)N1OCC(=O)OCc1ccc([N+](=O)[O-])cc1 | 147 to 153 °C
COC(=O)N1CCC(=O)C(C2(NO)OCCO2)CC1 (stereo unspecified) | 152 to 154 °C
CN1CCN(C(=O)c2ccc(-c3cc(-c4c[nH]nc4-c4ccccn4)ccn3)cc2)CC1 | 142 °C
CC(C)(C)c1cc(CCC(=O)O)cc(-n2nc3ccc(Sc4ccccc4)cc3n2)c1O | 154 to 156 °C
N#Cc1c(-c2ccccc2)c(-c2ccccc2)nn(CCO)c1=O | 197 to 198 °C
COc1ccc(-n2nc(C(C)(C)C)cc2NC(=O)c2cccc3cc(Oc4cc(Cl)ncn4)ccc23)cc1 | 163 to 164 °C
N#Cc1ccc(-c2ccc(Cl)cc2)cc1 | 128 to 130 °C
Cc1[nH]n(C2CCCC2C)c2nc(-c3ccncc3)nc(=O)c1-2 (stereo unspecified) | 290 to 291 °C
COc1ccc(-c2nnc3c4ccccc4c(Nc4ccc(NC(=O)c5ccccn5)cc4)nn23)cc1 | 301 to 305 °C
Cc1nsc2cc(N)c([N+](=O)[O-])cc12 | 189 to 191 °C
Cc1nc2cccc3n(CCC4CCN(S(=O)(=O)C(F)(F)F)CC4)c(=O)c1n23 | 169 to 170 °C
CCNC(=S)N1CCc2[nH]cnc2C1 | 185 °C
NC(=O)c1ccc(-c2n[nH]c3c2Cc2ccccc2-3)cc1 | 290 to 293 °C
Nc1cnc(Br)c(N)n1 | 176 to 178 °C
N#CC(C#N)=C1C=C(c2ccsc2)S(=O)(=O)C(c2ccsc2)=C1 | 275 to 285 °C
NC(CF)C(=O)c1ccccc1 (stereo unspecified) | 40 to 42 °C
O=CNc1ccc2[nH]c3cc(-c4ccccc4Cl)c4c(c3c2c1)C(=O)NC4=O | 293 to 297 °C
O=C(CCCC(=O)N1CCC[C@H]1C(=O)O)c1ccccc1 | 102 to 105 °C
COc1ccc2nc(NC(=O)C(CC3CCCC3)c3ccc(S(=O)(=O)NCc4cccnc4)cc3)sc2n1 (stereo unspecified) | 227 to 229 °C
CCCCCCCCCCSC(=O)CS(=O)(=O)Nc1c(C(C)C)cccc1C(C)C | 57 to 59 °C

Results, then the molecule that gave them:

melting point | Compound
101 to 103 °C | CCOC(=O)N(O)Cc1cccc(Nc2ccccc2C(=O)OC)c1C
117 to 119 °C | CSc1ccc([C@@H](CC2CCCC2)C(=O)O)cc1Cl
80 to 82 °C | CCCCOC(=O)C=Cc1c(-c2ccccc2)nn2ccccc12
119 to 123 °C | COC1=CC(=O)C2=C(C1=O)C(Cl)C(Cl)CC2 (stereo unspecified)
> 250 °C | CC(C)c1cccc2[nH]c(C(=O)O)cc(=O)c12
60 to 62 °C | COc1c(O)c(C=O)cc2ccoc12
132 to 134 °C | CCc1cc(C(=O)O)c(OC(C)=O)cc1C
73 to 75 °C | CCNC(=S)OCCOc1ccc(Oc2ccc(F)cc2)cc1
107 to 109 °C | CCN(C(=O)c1ccc(Cl)c(Cl)c1)c1ccc(C)cc1CCC(=O)O
114 to 115 °C | O=C(CNC(=O)C1CCCCC1)c1ccccc1
203 to 204 °C | Cc1nc(-n2cccc(C(F)(F)F)c2=O)sc1C(=O)NCc1ccccc1
126 to 129 °C | CCOC(=S)c1c(COC)nc2cc(F)c(F)cc2c1O
159 to 161 °C | Cn1nnc(Cc2ccc(NC(=O)/C=C/c3cnn(C)c3-c3ccc(F)cc3)cc2)n1
169 °C | CC(=O)c1ccc(C(=O)NCC(=O)NCC(F)(F)F)c2ccccc12
217 to 219 °C | CCn1cc(C(=O)NCc2ccc(Cl)cc2)c(=O)c2cc(C#CCO)sc21
68 to 72 °C | COc1ccc(OCCO)c(C=O)c1
188 °C | COc1ccccc1CNc1nc(Cl)nc2c1ncn2[C@@H]1SC[C@@H](O)[C@H]1O
258 to 261 °C | Cc1oc2c(NC(=O)c3c(Cl)ccc(CO)c3Cl)cccc2c1C
222 °C | Cc1cc(C#N)cc(C(=O)Nc2cccc(Cl)n2)n1

melting point | Compound
97 to 99 °C | CCOC(=O)C1(C(=O)OCC)NC(=O)CC1c1ccccc1 (stereo unspecified)
150 to 151 °C | COC(=O)C(S)CNC(=O)C(=O)NCC(S)C(=O)OC (stereo unspecified)
165 °C | COc1cc(Nc2nccc(C(=O)c3ccccc3)n2)cc(OC)c1OC
93 to 96 °C | COc1ccc(S(=O)(=O)C(C)(Cc2ccccc2Br)C(=O)NO)cc1 (stereo unspecified)
122 to 123 °C | COC(=O)C=CCOc1ccc(F)c(C(N)=O)c1F
38.5 to 40.5 °C | CC(C)(C)c1ccccc1C(=O)O
80 to 84 °C | Nc1ccc(F)c(CO)c1
227 to 228 °C | Cc1ccc(NC(=O)c2ccc3ncccc3c2)cc1NC(=O)c1ccc(OCc2ccccc2)cc1
49 °C | COc1cc(CN(C(N)=S)[C@@H](COC(=O)C(C)(C)C)Cc2ccccc2)ccc1OCCN
87 to 89 °C | CCOC(=O)C1CCC(c2ccccc2)n2c(=O)n(CCCl)c(=O)n21 (stereo unspecified)
75 to 77 °C | COCCN(CCOC)CC1=Cc2ccsc2S(=O)(=O)N1Cc1ccc(OC)cc1
160 to 162 °C | CC(=O)Cc1cc2[nH]c(=O)oc2cc1Br
65 to 66 °C | CN(C)C(=O)n1nc(N(C)C)c2ccc(Cl)cc21
283 to 287 °C | COC(=O)c1cccc2c1CN(c1c(F)cc3c(=O)c(C(=O)O)cn(-c4ccc(F)cc4)c3c1F)C2
156 to 159 °C | COC(=O)C1=C(C)NC(=O)N(C(C)=O)C1c1ccccc1 (stereo unspecified)
> 133 °C | COC(=O)[C@@]12CO[C@@H](C(C)(C)C)N1C(=O)[C@](Cc1ccccc1)(C(=O)O)C2
192 to 193 °C | COc1ccc(-n2nc(C#N)cc2-c2ccc(S(C)(=O)=O)cc2)cc1F
144 to 146 °C | COC(=O)c1ccc(-c2nccc3ccn(S(=O)(=O)c4ccc(OC)cc4)c23)cc1
